How the values were obtained:
[1] = target: T1, Gag-Pol polyprotein [600-1028,C879S]/[600-1151,C879S] (Human immunodeficiency virus 1, UniProt P03366, C879S); test: Assay of RT RNH Activity; conditions: pH 8; 37 °C
T1 construct: 600-1028; 600-1151
Procedure: (§1) To assess the effect of inhibitors, RT RNH activity was measured using a FRET-based microplate fluorescence assay. Briefly, the RNA-DNA hybrid duplex was added to individual wells of a 96-well microplate containing test compound. Reactions were initiated by the addition of HIV-1 RT and allowed to proceed at 37 deg C for 30 min. Reactions were quenched by the addition of EDTA (0.5 M).

[2] = target: T1, Gag-Pol polyprotein [600-1028,C879S]/[600-1151,C879S]; test: Assay of RT RNA-Dependent DNA Polymerase (RDDP) Activity; conditions: pH 7.8; 37 °C
Procedure: HIV-1 RT RDDP activity was generally determined by a fixed time assay. Briefly, reaction mixtures contained p51/p66 RT, template-primer, and [3H]-TTP substrate. Aliquots of DMSO solutions containing the inhibitor were added such that the final DMSO concentration was < 2%. Reaction assays were incubated at 37 deg C for 10-20 min and then quenched with sodium pyrophosphate in 10% trichloroacetic acid (TCA). The samples were then filtered on Whatman 934-AH glass fiber filters and washed with 10% TCA and ethanol, and the radioactivity determined by liquid scintillation spectrometry.

[3] = target: T2, Gag-Pol polyprotein [600-1028,D666N,K669R,T814F,K818Q,C879S]/[600-1151,D666N,K669R,T814F,K818Q,C879S] (Human immunodeficiency virus 1, UniProt P03366, C879S/D666N/K669R/K818Q/T814F); test: Assay of RT RNH Activity
T2 construct: 600-1028; 600-1151
Procedure: as §1

[4] = target: T3, Gag-Pol polyprotein [600-1028,L699I,K702N,C879S]/[600-1151,L699I,K702N,C879S] (Human immunodeficiency virus 1, UniProt P03366, C879S/K702N/L699I); test: Assay of RT RNH Activity
T3 construct: 600-1028; 600-1151
Procedure: as §1

[5] = target: T4, Gag-Pol polyprotein [600-1028,V705A,Y780C,C879S]/[600-1151,V705A,Y780C,C879S] (Human immunodeficiency virus 1, UniProt P03366, C879S/V705A/Y780C); test: Assay of RT RNH Activity
T4 construct: 600-1028; 600-1151
Procedure: as §1

[6] = target: T5, Gag-Pol polyprotein [600-1028,Y780C]/[600-1151,Y780C] (Human immunodeficiency virus 1, UniProt P03366, Y780C); test: Assay of RT RNH Activity
T5 construct: 600-1028; 600-1151
Procedure: as §1

[7] = target: T6, Gag-Pol polyprotein [600-1028,Y787L]/[600-1151,Y787L] (Human immunodeficiency virus 1, UniProt P03366, Y787L); test: Assay of RT RNH Activity
T6 construct: 600-1028; 600-1151
Procedure: as §1

SMILES	IC50 [1] [µM]	IC50 [2] [µM]	IC50 [3] [µM]	IC50 [4] [µM]	IC50 [5] [µM]	IC50 [6] [µM]	IC50 [7] [µM]
COc1ccc2ccccc2c1/C=N/NC(=O)c1ccccc1 [dihydroxy benzoyl naphthyl hydrazone (DHBNH) analogue, 1]	15	> 50	–	–	–	–	–
COc1ccc2ccccc2c1/C=N/NC(=O)c1ccc(C)cc1 [dihydroxy benzoyl naphthyl hydrazone (DHBNH) analogue, 2]	15	> 50	–	–	–	–	–
COc1ccc(C(=O)N/N=C/c2c(OC)ccc3ccccc23)cc1 [dihydroxy benzoyl naphthyl hydrazone (DHBNH) analogue, 3]	12	> 50	–	–	–	–	–
COc1ccc2ccccc2c1/C=N/NC(=O)c1ccc(N(C)C)cc1 [dihydroxy benzoyl naphthyl hydrazone (DHBNH) analogue, 4]	2	> 50	–	–	–	–	–
COc1ccc2ccccc2c1/C=N/NC(=O)c1ccc(C(C)(C)C)cc1 [dihydroxy benzoyl naphthyl hydrazone (DHBNH) analogue, 5]	3	2	–	–	–	–	–
COc1ccc2ccccc2c1/C=N/NC(=O)c1ccc(-c2ccccc2)cc1 [dihydroxy benzoyl naphthyl hydrazone (DHBNH) analogue, 6]	5	0.5	–	–	–	–	–
COc1ccc2ccccc2c1/C=N/NC(=O)c1ccc(Oc2ccccc2)cc1 [dihydroxy benzoyl naphthyl hydrazone (DHBNH) analogue, 7]	7	0.4	–	–	–	–	–
COc1ccc2ccccc2c1/C=N/NC(=O)C1CCC(c2ccc(Cl)cc2)CC1 (stereo not drawn) [dihydroxy benzoyl naphthyl hydrazone (DHBNH) analogue, 8]	7.5	1	–	–	–	–	–
COc1ccc2ccccc2c1/C=N/NC(=O)c1ccc(O)c(O)c1 [dihydroxy benzoyl naphthyl hydrazone (DHBNH)]	0.5	> 25	0.5	0.7	0.85	0.65	1.2

Reference: BindingDB's records for doi:10.1021/cb600303y (Rutgers University, 2006)
